# Measured values taken from patent US6916773B2, “Non-surfactant solubilizing agent” (Ecolab, Inc., priority 2002, dated 2005).
# Key:
# Format in all cases: physicochemical
# Details in all cases: room temperature
# [1] = Sodium benzoate added to aqueous solvent solution until single phase observed (DPnB)
# Description: (§1) Aqueous solutions of dipropylene glycol n-butyl ether(DPnB), propylene glycol phenyl ether(PPh), and benzyl alcohol were prepared and sodium benzoate was added at room temperature to each solution until a single phase solution was observed.
# [2] = Sodium benzoate added to aqueous solvent solution until single phase observed (PPh)
# Description: as §1
# [3] = Sodium benzoate added to aqueous solvent solution until single phase observed (benzyl alcohol)
# Description: as §1
smiles,measurement,setting,value
"O=C([O-])c1ccccc1.[Na+] [Na Benzoate, sodium benzoate]",Na Benzoate at which a single phase solution was observed,"[1]; Water 45 wt %, DPnB 45 wt %",10 wt %
same,Na Benzoate at which a single phase solution was observed,"[1]; Water 62 wt %, DPnB 26 wt %",12 wt %
same,Na Benzoate at which a single phase solution was observed,"[1]; Water 70 wt %, DPnB 18 wt %",12 wt %
same,Na Benzoate at which a single phase solution was observed,"[1]; Water 75 wt %, DPnB 13 wt %",12 wt %
same,Na Benzoate at which a single phase solution was observed,"[1]; Water 79 wt %, DPnB 9 wt %",12 wt %
same,Na Benzoate at which a single phase solution was observed,"[1]; Water 86 wt %, DPnB 4 wt %",10 wt %
same,Na Benzoate at which a single phase solution was observed,"[1]; Water 98 wt %, DPnB 2 wt %",0 wt %
same,Na Benzoate at which a single phase solution was observed,"[1]; Water 99 wt %, DPnB 1 wt %",0 wt %
same,Na Benzoate at which a single phase solution was observed,"[2]; Water 43 wt %, PPh 43 wt %",14 wt %
same,Na Benzoate at which a single phase solution was observed,"[2]; Water 58 wt %, PPh 25 wt %",17 wt %
same,Na Benzoate at which a single phase solution was observed,"[2]; Water 63 wt %, PPh 16 wt %",21 wt %
same,Na Benzoate at which a single phase solution was observed,"[2]; Water 69 wt %, PPh 12 wt %",19 wt %
same,Na Benzoate at which a single phase solution was observed,"[2]; Water 74 wt %, PPh 8 wt %",18 wt %
same,Na Benzoate at which a single phase solution was observed,"[2]; Water 79 wt %, PPh 4 wt %",17 wt %
same,Na Benzoate at which a single phase solution was observed,"[2]; Water 83 wt %, PPh 2 wt %",15 wt %
same,Na Benzoate at which a single phase solution was observed,"[2]; Water 93 wt %, PPh 1 wt %",6 wt %
same,Na Benzoate at which a single phase solution was observed,"[3]; Water 44 wt %, Benzyl Alcohol 44 wt %",12 wt %
same,Na Benzoate at which a single phase solution was observed,"[3]; Water 61 wt %, Benzyl Alcohol 26 wt %",13 wt %
same,Na Benzoate at which a single phase solution was observed,"[3]; Water 69 wt %, Benzyl Alcohol 17 wt %",14 wt %
same,Na Benzoate at which a single phase solution was observed,"[3]; Water 74 wt %, Benzyl Alcohol 13 wt %",13 wt %
same,Na Benzoate at which a single phase solution was observed,"[3]; Water 78 wt %, Benzyl Alcohol 9 wt %",13 wt %
same,Na Benzoate at which a single phase solution was observed,"[3]; Water 85 wt %, Benzyl Alcohol 4 wt %",11 wt %
same,Na Benzoate at which a single phase solution was observed,"[3]; Water 98 wt %, Benzyl Alcohol 2 wt %",0 wt %
same,Na Benzoate at which a single phase solution was observed,"[3]; Water 99 wt %, Benzyl Alcohol 1 wt %",0 wt %
